This is an account of results in patent US20240360157A1, “TYK2 INHIBITORS” (BIOGEN MA INC., priority 2021, published 2024).

The structures appear in SMILES notation. Where only a bound is given, the exact number is not on record here.

Common to all, as to format: biochemical
Test [1] concerns the target human JAK3 catalytic kinase (JH1) domain (Homo sapiens (Human), UniProt P52333). Description: ADP-Glo Kinase Assay, recombinant JAK3 catalytic kinase (JH1) domain. The note with it: recombinant JH1 domain 0.3 nM, 4 μM ATP, JAK3-974 peptide, mean, read-out: JAK3 biochem IC50 (nM) Mean. A digest of the protocol: (§1)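 Reactions ran 100 min with 50 μM substrate peptide (JAK3-342 for JAK1 at 4 nM enzyme; JAK3-974 for JAK2 0.2 nM, JAK3 0.3 nM, TYK2 2 nM), and ADP formed was read by ADP-Glo luminescence. Eleven-point 3-fold series from 10 or 1 μM; IC50 fitted by 4-parameter logistic model.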

The target of test [2] is human JAK1 catalytic kinase (JH1) domain (Homo sapiens (Human), UniProt P23458). The test is described as follows: ADP-Glo Kinase Assay, recombinant JAK1 catalytic kinase (JH1) domain. The note with it: recombinant JH1 domain 4 nM, 35 μM ATP, JAK3-342 peptide, mean, read-out: JAK1 biochem IC50 (nM) Mean. The essentials:
as §1
In general terms: ADP-Glo turns the ADP formed in a reaction into a luminescent signal.

For test [3], the target named is human JAK2 catalytic kinase (JH1) domain (Homo sapiens (Human), UniProt O60674). Description: ADP-Glo Kinase Assay, recombinant JAK2 catalytic kinase (JH1) domain. The following applies: recombinant JH1 domain 0.2 nM, 15 μM ATP, JAK3-974 peptide, mean, read-out: JAK2 biochem IC50 (nM) Mean. A digest of the protocol:
as §1

Test [4] deals with human TYK2 catalytic kinase (JH1) domain (Homo sapiens (Human), UniProt P29597). The test is described as follows: ADP-Glo Kinase Assay, recombinant TYK2 catalytic kinase (JH1) domain. The note with it: recombinant JH1 domain 2 nM, 10 μM ATP, JAK3-974 peptide, mean, read-out: TYK2 biochem IC50 (nM) Mean. A digest of the protocol: as §1
human TYK2 catalytic kinase (JH1) domain, sequence (P29597 897-1176): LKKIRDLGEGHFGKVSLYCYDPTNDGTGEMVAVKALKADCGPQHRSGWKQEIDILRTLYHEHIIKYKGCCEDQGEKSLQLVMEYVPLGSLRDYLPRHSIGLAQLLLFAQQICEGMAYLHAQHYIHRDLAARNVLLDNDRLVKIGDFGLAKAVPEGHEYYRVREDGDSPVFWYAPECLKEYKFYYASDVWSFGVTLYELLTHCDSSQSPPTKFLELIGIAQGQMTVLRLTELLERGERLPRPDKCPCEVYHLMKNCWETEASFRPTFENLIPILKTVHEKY

human JAK3 catalytic kinase (JH1) domain, sequence (P52333 822-1111): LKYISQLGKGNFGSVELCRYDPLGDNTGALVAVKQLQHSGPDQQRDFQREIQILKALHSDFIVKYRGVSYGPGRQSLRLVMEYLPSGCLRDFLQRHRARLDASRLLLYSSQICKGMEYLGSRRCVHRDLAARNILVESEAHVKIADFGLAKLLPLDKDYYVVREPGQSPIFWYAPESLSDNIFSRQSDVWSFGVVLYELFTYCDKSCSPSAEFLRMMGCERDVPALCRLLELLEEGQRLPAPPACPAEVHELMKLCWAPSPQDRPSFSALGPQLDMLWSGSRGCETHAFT
human JAK1 catalytic kinase (JH1) domain, sequence (P23458 875-1153): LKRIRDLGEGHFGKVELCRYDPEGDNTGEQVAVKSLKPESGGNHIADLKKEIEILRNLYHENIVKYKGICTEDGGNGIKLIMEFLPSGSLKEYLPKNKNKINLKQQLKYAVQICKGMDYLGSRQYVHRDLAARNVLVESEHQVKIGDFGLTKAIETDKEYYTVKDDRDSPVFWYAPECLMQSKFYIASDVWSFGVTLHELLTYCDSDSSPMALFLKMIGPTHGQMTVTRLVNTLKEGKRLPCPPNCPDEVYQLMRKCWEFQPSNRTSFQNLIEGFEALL
human JAK2 catalytic kinase (JH1) domain, sequence (O60674 849-1124): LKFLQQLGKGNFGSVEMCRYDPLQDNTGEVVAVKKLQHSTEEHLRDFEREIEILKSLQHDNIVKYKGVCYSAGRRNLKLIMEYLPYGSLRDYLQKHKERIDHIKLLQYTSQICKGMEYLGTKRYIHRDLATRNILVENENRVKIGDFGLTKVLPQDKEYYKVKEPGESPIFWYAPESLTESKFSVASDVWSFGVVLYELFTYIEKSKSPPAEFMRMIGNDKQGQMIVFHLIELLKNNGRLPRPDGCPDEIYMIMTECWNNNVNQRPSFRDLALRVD

Turning to `O=C([C@@H]1C[C@H]1F)N1C2CCC1CN(c1ccnn3cc(-c4ccnnc4)cc13)C2` [Example 109, ((1S,2R)-2-fluorocyclopropyl)(3-(6-(pyridazin-4-yl)pyrrolo[1,2-b]pyridazin-4-yl)-3,8-diazabicyclo[3.2.1]octan-8-yl)methanone], the IC50 in test [1] worked out at 847 nM; in test [2], 38 nM; in test [3], 45 nM; in test [4], 3.2 nM.
Take `CC1(C)C(C(=O)N2C3CCC2CN(c2ncnn4cc(-c5cnn(C(F)F)c5)cc24)C3)C1(F)F` (stereo not shown) [Example 13, (2,2-difluoro-3,3-dimethylcyclopropyl)(3-(6-(1-(difluoromethyl)-1H-pyrazol-4-yl)pyrrolo[2,1-f][1,2,4]triazin-4-yl)-3,8-diazabicyclo[3.2.1]octan-8-yl)methanone]: the half-inhibitory concentration (IC50) stood at 7220 nM in test [1], 3360 nM in test [2], 9150 nM in test [3] and 688 nM in test [4].
The corresponding values for `Cc1cc(-c2nc3c(N4CC5CCC(C4)N5C(=O)[C@@H]4C[C@H]4F)ccnc3[nH]2)ccn1` [Example 202, ((1S,2R)-2-fluorocyclopropyl)(3-(2-(2-methylpyridin-4-yl)-3H-imidazo[4,5-b]pyridin-7-yl)-3,8-diazabicyclo[3.2.1]octan-8-yl)methanone] are 199 nM, 5 nM, 14 nM and 2.5 nM.
For the compound `Cn1cc(-c2cc3c(N4CC5CCC(C4)N5C(=O)[C@@H]4C[C@H]4F)ccnn3c2)ccc1=O` [Example 172], the IC50 in test [1] is 595 nM; in test [2], 32 nM; in test [3], 54 nM; in test [4] it was 2.6 nM.
The like results for `Cn1cc(-c2cc3c(N4CC5CCC(C4)N5C(=O)[C@H]4C[C@H]4F)ncnn3c2)cn1` (single isomer, unassigned) [Example 79] were, in that order, not below 10000 nM, 9330 nM, not below 10000 nM and 626 nM.
For the compound `Cn1cc(-c2cc3c(N4CC5CCC(C4)N5S(=O)(=O)C4CC4)ccnn3c2)cn1` [Example 189, 4-(8-(cyclopropylsulfonyl)-3,8-diazabicyclo[3.2.1]octan-3-yl)-6-(1-methyl-1H-pyrazol-4-yl)pyrrolo[1,2-b]pyridazine], the concentration for half-maximal inhibition (IC50) in test [1] was 1020 nM; in test [2], 1210 nM; in test [3], 208 nM; in test [4], 46.5 nM.
The like results for `O=C(C1CC1)N1C2CCC1CN(c1ccnn3cc(-c4cnn(C(F)F)c4)cc13)C2` [Example 16, cyclopropyl(3-(6-(1-(difluoromethyl)-1H-pyrazol-4-yl)pyrrolo[1,2-b]pyridazin-4-yl)-3,8-diazabicyclo[3.2.1]octan-8-yl)methanone] were, in that order, 1040 nM, 264 nM, 257 nM and 13.8 nM.
For the compound `O=C([C@@H]1C[C@H]1F)N1C2CCC1CN(c1ccnc3[nH]c(C4CCOC4)nc13)C2` (stereo partly drawn) [Example 211, ((1S,2R)-2-fluorocyclopropyl)(3-(2-(tetrahydrofuran-3-yl)-3H-imidazo[4,5-b]pyridin-7-yl)-3,8-diazabicyclo[3.2.1]octan-8-yl)methanone], the half-inhibitory concentration (IC50) in test [1] came to 10000 nM; in test [2], 5780 nM; in test [3] it was 10000 nM; in test [4], 676 nM.
`CN(C)c1cc(-c2cc3c(N4CC5CCC(C4)N5C(=O)[C@@H]4C[C@H]4F)ccnn3c2)cnn1` [Example 138, (3-(6-(6-(dimethylamino)pyridazin-4-yl)pyrrolo[1,2-b]pyridazin-4-yl)-3,8-diazabicyclo[3.2.1]octan-8-yl)((1S,2R)-2-fluorocyclopropyl)methanone]: the concentration for half-maximal inhibition (IC50) in test [1] came out at 3930 nM; in test [2], 57 nM; in test [3], 395 nM; in test [4], 13.8 nM.
The corresponding values for `O=C(C1CC1)N1C2CCC1CN(c1ncnn3cc(-c4cnn(C(F)F)c4)c(F)c13)C2` [Example 163] are 10000 nM, 5120 nM, 10000 nM and 746 nM.
As to `COc1nccc(-c2cc3c(N4CC5CCC(C4)N5C(=O)[C@@H]4C[C@H]4F)ccnc3[nH]2)c1F` [Example 247, ((1S,2R)-2-fluorocyclopropyl)(3-(2-(3-fluoro-2-methoxypyridin-4-yl)-1H-pyrrolo[2,3-b]pyridin-4-yl)-3,8-diazabicyclo[3.2.1]octan-8-yl)methanone], the half-inhibitory concentration (IC50) was 168 nM in test [1], 40 nM in test [2], 18 nM in test [3] and 1.4 nM in test [4].
In the case of `Cn1cc(-c2[nH]c3nccc(N4CC5CCC(C4)N5C(=O)[C@@H]4C[C@H]4F)c3c2C#N)cn1` [Example 250, 4-(8-((1S,2R)-2-fluorocyclopropane-1-carbonyl)-3,8-diazabicyclo[3.2.1]octan-3-yl)-2-(1-methyl-1H-pyrazol-4-yl)-1H-pyrrolo[2,3-b]pyridine-3-carbonitrile], the half-inhibitory concentration (IC50) in test [1] came out at 455 nM; in test [2], 455 nM; in test [3], 53 nM; in test [4], 7.1 nM.
In the case of `O=C(C1CC1)N1C2CCC1CN(c1ncnn3cc(-c4cnn(CC5COC5)c4)cc13)C2` [Example 160], the half-maximal inhibitory concentration (IC50) in test [1] was found to be 780 nM; in test [2], 555 nM; in test [3], 931 nM; in test [4], 107 nM.
The corresponding values for `N#CC1CC(C(=O)N2C3CCC2CN(c2ncnn4cc(-c5cnn(C(F)F)c5)cc24)C3)C1` (stereo not shown) [Example 12, 3-(3-(6-(1-(difluoromethyl)-1H-pyrazol-4-yl)pyrrolo[2,1-f][1,2,4]triazin-4-yl)-3,8-diazabicyclo[3.2.1]octane-8-carbonyl)cyclobutane-1-carbonitrile] are 8350 nM, 2980 nM, 7960 nM and 656 nM.
The corresponding values for `O=C([C@@H]1C[C@H]1F)N1C2CCC1CN(c1ccnn3cc([C@H]4CC4(F)F)cc13)C2` (single isomer, unassigned) [Example 135] are not below 10000 nM, 2010 nM, 8220 nM and 125 nM.
The like results for `Cc1cc(-c2cc3c(N4CC5CCC(C4)N5C(=O)[C@@H]4C[C@H]4F)ccnn3c2)ccn1` [Example 100, ((1S,2R)-2-fluorocyclopropyl)(3-(6-(2-methylpyridin-4-yl)pyrrolo[1,2-b]pyridazin-4-yl)-3,8-diazabicyclo[3.2.1]octan-8-yl)methanone] were, in that order, 756 nM, 26 nM, 43 nM and 2.5 nM.
Regarding `COc1ccc(-c2cc3c(N4CC5CCC(C4)N5C(=O)[C@@H]4C[C@H]4F)ccnn3c2)nn1` [Example 122, ((1S,2R)-2-fluorocyclopropyl)(3-(6-(6-methoxypyridazin-3-yl)pyrrolo[1,2-b]pyridazin-4-yl)-3,8-diazabicyclo[3.2.1]octan-8-yl)methanone], the 50% inhibitory concentration (IC50) in test [1] came out at 940 nM; in test [2], 308 nM; in test [3], 63 nM; in test [4] it was 3.7 nM.
Turning to `O=C(C1CCC1(F)F)N1C2CCC1CN(c1ncnn3cc(-c4cnn(C(F)F)c4)cc13)C2` (stereo not shown) [Example 11, (2,2-difluorocyclobutyl)(3-(6-(1-(difluoromethyl)-1H-pyrazol-4-yl)pyrrolo[2,1-f][1,2,4]triazin-4-yl)-3,8-diazabicyclo[3.2.1]octan-8-yl)methanone], the concentration for half-maximal inhibition (IC50) stood at 6670 nM in test [1], 1650 nM in test [2], 8370 nM in test [3] and 506 nM in test [4].
On to `O=C([C@@H]1CC1(F)F)N1C2CCC1CN(c1ccnn3cc(C4CC4)cc13)C2` [Example 25, (3-(6-cyclopropylpyrrolo[1,2-b]pyridazin-4-yl)-3,8-diazabicyclo[3.2.1]octan-8-yl)((S)-2,2-difluorocyclopropyl)methanone], for which the IC50 in test [1] stood at 10000 nM; in test [2], 8060 nM; in test [3] it was 10000 nM; in test [4], 662 nM.
Consider `O=C([C@@H]1C[C@H]1F)N1C2CCC1CN(c1ccnn3cc(-c4ccnc(F)c4)cc13)C2` [Example 170], for which the 50% inhibitory concentration (IC50) in test [1] is 344 nM; in test [2], 25 nM; in test [3], 36 nM; in test [4], 1.2 nM.
The corresponding values for `Cn1cc(-c2cc3c(N4CC5CCC(C4)N5C(=O)C4(C)CCC4)ncnn3c2)cn1` [Example 68, (3-(6-(1-methyl-1H-pyrazol-4-yl)pyrrolo[2,1-f][1,2,4]triazin-4-yl)-3,8-diazabicyclo[3.2.1]octan-8-yl)(1-methylcyclobutyl)methanone] are 8670 nM, 8700 nM, 9180 nM and 696 nM.
Consider `Cn1cc(-c2cc3c(N4CC5CCC(C4)N5C(=O)[C@@H]4C[C@H]4F)ncnc3[nH]2)cn1` [Example 235, ((1S,2R)-2-fluorocyclopropyl)(3-(6-(1-methyl-1H-pyrazol-4-yl)-7H-pyrrolo[2,3-d]pyrimidin-4-yl)-3,8-diazabicyclo[3.2.1]octan-8-yl)methanone], for which the 50% inhibitory concentration (IC50) in test [1] stood at 338 nM; in test [2] it was 117 nM; in test [3], 106 nM; in test [4] it was 5.3 nM.

The IC50 is the point on the concentration scale where inhibition reaches its midpoint.
